Data as given in patent US5990328A, “Process for the preparation of 4-amino-Δ4-3-ketosteroids via 4-nitro-Δ4-3-ketosteroids” (priority 1999, dated 1999).

How the values were obtained:
Assay type in all cases: biochemical
[1] = target: T1, monkey testicular C17-20 lyase (Macaca fascicularis, UniProt Q2XVA1); assay: inhibition of cynomolgus monkey testicular C17-20 lyase (microsomes), with or without preincubation; conditions: for inhibition at 0.1 µM / inhibition at 1 µM: cynomolgus monkey testicular lyase; for inhibition at 0.1 µM: concentration 0.1 μM; for inhibition at 1 µM: concentration 1 μM
T1 construct: microsomal preparations of the enzyme from rat or cynomolgus monkey testicular tissue; from tissue; host or cells: cynomolgus monkey testicular tissue, microsomes
T1 sequence (Q2XVA1 1-508): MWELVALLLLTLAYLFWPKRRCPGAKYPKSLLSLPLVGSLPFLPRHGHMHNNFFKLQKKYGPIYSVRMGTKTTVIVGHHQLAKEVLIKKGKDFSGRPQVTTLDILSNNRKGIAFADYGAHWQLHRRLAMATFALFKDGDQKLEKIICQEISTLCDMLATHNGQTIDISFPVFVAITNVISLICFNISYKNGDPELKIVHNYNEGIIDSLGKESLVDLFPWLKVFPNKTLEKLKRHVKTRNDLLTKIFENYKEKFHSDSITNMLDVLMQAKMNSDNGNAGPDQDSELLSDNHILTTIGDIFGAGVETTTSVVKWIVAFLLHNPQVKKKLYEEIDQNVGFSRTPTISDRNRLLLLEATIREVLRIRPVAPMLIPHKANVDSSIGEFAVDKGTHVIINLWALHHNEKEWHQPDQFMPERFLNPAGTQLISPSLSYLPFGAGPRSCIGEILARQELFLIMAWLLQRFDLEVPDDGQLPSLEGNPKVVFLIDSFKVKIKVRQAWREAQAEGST
Procedure: (§1) The in vitro enzymatic inhibitory activity of the present compounds as inhibitors of steroid C17-20 lyase was established using microsomal preparations of the enzyme from rat or cynomolgus monkey testicular tissue. Microsomes were isolated from cynomolgus monkey or rat testicular tissue. The compound to be tested was dissolved in dimethyl sulfoxide and diluted in 0.05M potassium phosphate buffer, (pH 7.4 for cynomolgus monkey lyase activity and pH 7.2 for rat lyase activity) to give the desired concentrations of test compound. The final assay concentration of DMSO was 0.1% (v/v). Assays contained an NADPH regenerating system comprised of […], 5 mM glucose-6-phosphate, 1 IU/mL glucose-6-phosphate dehydrogenase and microsomal protein in a total volume of 0.2 mL.
For determination of time dependent C17-20 lyase inactivation, the test compound was incubated with 20 to 62 μg/mL microsomal protein, 0.05 M potassium phosphate buffer, pH 7.4, and the NADPH regenerating system described above at 34° C. for 0 to 40 minutes. Aliquots of 180 μL were then removed and assayed for enzyme activity. Each aliquot was added to [7-^3 H]-17α-hydroxypregnenolone (11.2 mCi/mmole; 0.2 μCi per assay) plus unlabeled 17α-hydroxypregnenolone to give a total substrate concentration of 0.3 μM per assay and subsequently incubated for 6 minutes at 34° C. For determination of reversible inhibition by the test compound, the reaction was initiated by the addition of substrate and inhibitor (or DMSO in buffer for controls) simultaneously to the other assay components. The substrate used for cynomolgus monkey lyase was 7-^3 H-17α-hydroxypregnenolone, which yielded a final concentration of 0.3 μM substrate. […] The complete assay was incubated at 34° C. for 6 minutes for both rat and monkey lyase.
Each assay was terminated by addition of 5 mL of chloroform:methanol (2:1). Carrier steroid (2.5 μg each) representing substrates and products and 0.8 mL of distilled, deionized water were then added to each assay. Carrier steroids for the lyase assays were 17α-hydroxy-pregnenolone,dehydroepiandrosterone, and androst-5-ene-3β,17β-diol (cynomolgus monkey lyase assays) or 17α-hydroxyprogesterone, androstenedione, and testosterone (rat lyase assays). Testosterone, dihydrotestosterone, and 3,17-androstanediol were added to the 5α-reductase assays as carrier steroids. Radiolabeled and unlabeled steroid were extracted by the method of Moore and Wilson (Methods in Enzymol., eds. O'Malley, B. W. and Hardlan, J. G. 36, 1975, pp. 466-473). The organic phase containing the steroids was evaporated using nitrogen gas. For lyase assays, the residues dissolved in 18% tetrahydrofuran (v/v) in hexane. For 5α-reductase assays, the dried steroid residues were dissolved in 3% (v/v) isopropanol in hexane. the steroids were then separated by normal phase HPLC on a LiCrosorb® DIOL derivatized silica gel column (10 μm; 4×250 mm) with a 3% to 7.5% isopropanol in hexane gradient, followed by isocratic conditions of […] isopropanol in hexane. Radioactivity in the steroid peaks was measured using a Radiomatic® Model HS or Model A515 Flo-One detector for both lyase and 5α-reductase assays.
The enzyme activity for each assay was calculated from the percent conversion of substrate to products, and the results were expressed as percent inhibition of control. The data from these experiments were fitted into the appropriate two parameter model incorporating six concentrations of inhibitor to determine an IC50 value. […] When the compounds were tested using the above procedures with cynomolgus monkey testicular lyase, the following results were obtained: […]

[2] = target: T2, prostatic monkey 5α-reductase (Macaca fascicularis, UniProt Q28892); assay: inhibition of cynomolgus monkey prostatic 5α-reductase (microsomes)
T2 construct: microsomes were isolated from cynomolgus monkey prostate tissue; from tissue; host or cells: cynomolgus monkey prostate tissue, microsomes
T2 sequence (Q28892 1-254): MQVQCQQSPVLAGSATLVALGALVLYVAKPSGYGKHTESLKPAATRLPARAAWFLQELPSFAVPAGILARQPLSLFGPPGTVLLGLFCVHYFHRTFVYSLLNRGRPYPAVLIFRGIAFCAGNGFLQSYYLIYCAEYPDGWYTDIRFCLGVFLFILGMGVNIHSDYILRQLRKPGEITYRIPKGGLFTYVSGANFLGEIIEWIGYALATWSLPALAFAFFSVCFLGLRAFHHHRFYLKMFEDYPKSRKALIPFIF
Procedure: The activity of the present compounds as inhibitors of steroid 5α-reductase was determined using microsomal preparations of the 5α-reductase enzyme from laboratory animal prostate tissue. Specifically, microsomes were isolated from cynomolgus monkey prostate tissue. Protein concentration of the microsomal preparations was determined prior to use of the samples. […] Background radioactivity was determined from assays containing all components except enzyme. […]
(§2) Each assay was terminated by addition of 5 mL of chloroform:methanol (2:1). […] Radioactivity in the steroid peaks was measured using a Radiomatic® Model HS or Model A515 Flo-One detector for both lyase and 5α-reductase assays.
(§3) The enzyme activity for each assay was calculated from the percent conversion of substrate to products, and the results were expressed as percent inhibition of control. […]

[3] = target: T3, rat testicular C17-20 lyase (Rattus norvegicus, UniProt P11715); assay: inhibition of rat testicular C17-20 lyase (microsomes)
T3 construct: microsomal preparations of the enzyme from rat or cynomolgus monkey testicular tissue; from tissue; host or cells: rat testicular tissue, microsomes
T3 sequence (P11715 1-507): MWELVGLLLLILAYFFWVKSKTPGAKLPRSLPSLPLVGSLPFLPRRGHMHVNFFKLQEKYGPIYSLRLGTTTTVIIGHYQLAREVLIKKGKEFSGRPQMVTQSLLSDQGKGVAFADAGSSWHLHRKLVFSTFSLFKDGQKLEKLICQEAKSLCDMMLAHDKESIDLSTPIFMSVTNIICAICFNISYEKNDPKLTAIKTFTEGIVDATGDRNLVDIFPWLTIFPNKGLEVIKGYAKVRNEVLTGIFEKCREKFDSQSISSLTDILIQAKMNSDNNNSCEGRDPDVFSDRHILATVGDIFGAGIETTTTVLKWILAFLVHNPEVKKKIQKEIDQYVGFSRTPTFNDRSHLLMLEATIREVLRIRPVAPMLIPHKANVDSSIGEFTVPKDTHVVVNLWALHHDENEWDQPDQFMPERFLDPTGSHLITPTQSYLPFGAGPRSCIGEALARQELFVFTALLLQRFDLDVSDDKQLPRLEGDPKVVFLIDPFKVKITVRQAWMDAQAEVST
Procedure: as §1, with “mL. […]” for “mL.”
as §2, §3

[4] = preincubation time 40 (minutes)

Compound | inhibition at 0.1 µM ([1]; preincubation time 0 (minutes)) [%] | inhibition at 1 µM ([1]; preincubation time 0 (minutes)) [%] | inhibition at 0.1 µM [1, 4] [%] | inhibition at 1 µM [1, 4] [%] | IC50 [2] [nM] | IC50 ([3]; rat testicular microsomes, substrate 0.1 μM 17α-hydroxyprogesterone, pH 7.2, 34° C.) [nM] | IC50 ([1]; cynomolgus monkey testicular microsomes, substrate 0.3 μM 17α-hydroxypregnenolone, 34° C.) [nM] | Km ([3]; substrate Km, rat lyase activity) [µM]
C[C@]12CC[C@H]3[C@@H](CCC4=C([N+](=O)[O-])C(=O)CC[C@@]43C)[C@@H]1CC[C@@H]2OC1CC1 [17β-cyclopropyloxy-4-nitroandrost-4-en-3-one] | 36 | 78 | 79 | 95 |  |  |  | 
C[C@H](CO)[C@H]1CC[C@H]2[C@@H]3CCC4=C([N+](=O)[O-])C(=O)CC[C@]4(C)[C@H]3CC[C@]12C [(20S)-20-Hydroxymethyl-4-nitropregn-4-en-3-one] |  |  |  |  | 17 | 86 | 41 | 
C[C@H](CS)[C@H]1CC[C@H]2[C@@H]3CCC4=C([N+](=O)[O-])C(=O)CC[C@]4(C)[C@H]3CC[C@]12C [(20S)-20-mercaptomethyl-4-nitropregn-4-en-3-one] | 0 | 69 | 26 | 93 |  |  |  | 
CC(=O)[C@@]1(O)CC[C@H]2[C@@H]3CCC4=CC(=O)CC[C@]4(C)[C@H]3CC[C@@]21C [[1,2-^3 H]-17α-hydroxyprogesterone, reference compound] |  |  |  |  |  |  |  | 0.095
